The test system of test [1] is patients of painful diabetic neuropathy. The conditions noted are these: cited from earlier work.
A further test has as its target hNav1.7 (Homo sapiens (Human), UniProt Q15858). Kind of test: Electrophysiological evaluation, automated patch clamp IonWorks Quattro, hNav 1.7/β1/β2 HEK293A cells. The format is cell-based. The conditions noted are these: response caused by the second depolarization pulse (pre-pulse potential set to V1/2); HEK293A hNav 1.7/β1/β2 cells; Population Patch Clamp. For orientation: In patch-clamp work, channel activity is measured electrically.

As usually defined, the IC50 is the midpoint of a concentration-inhibition curve. Low values mean greater potency in that assay, high ones weaker potency in that assay.

Chain of hNav1.7 (Q15858 whole entry): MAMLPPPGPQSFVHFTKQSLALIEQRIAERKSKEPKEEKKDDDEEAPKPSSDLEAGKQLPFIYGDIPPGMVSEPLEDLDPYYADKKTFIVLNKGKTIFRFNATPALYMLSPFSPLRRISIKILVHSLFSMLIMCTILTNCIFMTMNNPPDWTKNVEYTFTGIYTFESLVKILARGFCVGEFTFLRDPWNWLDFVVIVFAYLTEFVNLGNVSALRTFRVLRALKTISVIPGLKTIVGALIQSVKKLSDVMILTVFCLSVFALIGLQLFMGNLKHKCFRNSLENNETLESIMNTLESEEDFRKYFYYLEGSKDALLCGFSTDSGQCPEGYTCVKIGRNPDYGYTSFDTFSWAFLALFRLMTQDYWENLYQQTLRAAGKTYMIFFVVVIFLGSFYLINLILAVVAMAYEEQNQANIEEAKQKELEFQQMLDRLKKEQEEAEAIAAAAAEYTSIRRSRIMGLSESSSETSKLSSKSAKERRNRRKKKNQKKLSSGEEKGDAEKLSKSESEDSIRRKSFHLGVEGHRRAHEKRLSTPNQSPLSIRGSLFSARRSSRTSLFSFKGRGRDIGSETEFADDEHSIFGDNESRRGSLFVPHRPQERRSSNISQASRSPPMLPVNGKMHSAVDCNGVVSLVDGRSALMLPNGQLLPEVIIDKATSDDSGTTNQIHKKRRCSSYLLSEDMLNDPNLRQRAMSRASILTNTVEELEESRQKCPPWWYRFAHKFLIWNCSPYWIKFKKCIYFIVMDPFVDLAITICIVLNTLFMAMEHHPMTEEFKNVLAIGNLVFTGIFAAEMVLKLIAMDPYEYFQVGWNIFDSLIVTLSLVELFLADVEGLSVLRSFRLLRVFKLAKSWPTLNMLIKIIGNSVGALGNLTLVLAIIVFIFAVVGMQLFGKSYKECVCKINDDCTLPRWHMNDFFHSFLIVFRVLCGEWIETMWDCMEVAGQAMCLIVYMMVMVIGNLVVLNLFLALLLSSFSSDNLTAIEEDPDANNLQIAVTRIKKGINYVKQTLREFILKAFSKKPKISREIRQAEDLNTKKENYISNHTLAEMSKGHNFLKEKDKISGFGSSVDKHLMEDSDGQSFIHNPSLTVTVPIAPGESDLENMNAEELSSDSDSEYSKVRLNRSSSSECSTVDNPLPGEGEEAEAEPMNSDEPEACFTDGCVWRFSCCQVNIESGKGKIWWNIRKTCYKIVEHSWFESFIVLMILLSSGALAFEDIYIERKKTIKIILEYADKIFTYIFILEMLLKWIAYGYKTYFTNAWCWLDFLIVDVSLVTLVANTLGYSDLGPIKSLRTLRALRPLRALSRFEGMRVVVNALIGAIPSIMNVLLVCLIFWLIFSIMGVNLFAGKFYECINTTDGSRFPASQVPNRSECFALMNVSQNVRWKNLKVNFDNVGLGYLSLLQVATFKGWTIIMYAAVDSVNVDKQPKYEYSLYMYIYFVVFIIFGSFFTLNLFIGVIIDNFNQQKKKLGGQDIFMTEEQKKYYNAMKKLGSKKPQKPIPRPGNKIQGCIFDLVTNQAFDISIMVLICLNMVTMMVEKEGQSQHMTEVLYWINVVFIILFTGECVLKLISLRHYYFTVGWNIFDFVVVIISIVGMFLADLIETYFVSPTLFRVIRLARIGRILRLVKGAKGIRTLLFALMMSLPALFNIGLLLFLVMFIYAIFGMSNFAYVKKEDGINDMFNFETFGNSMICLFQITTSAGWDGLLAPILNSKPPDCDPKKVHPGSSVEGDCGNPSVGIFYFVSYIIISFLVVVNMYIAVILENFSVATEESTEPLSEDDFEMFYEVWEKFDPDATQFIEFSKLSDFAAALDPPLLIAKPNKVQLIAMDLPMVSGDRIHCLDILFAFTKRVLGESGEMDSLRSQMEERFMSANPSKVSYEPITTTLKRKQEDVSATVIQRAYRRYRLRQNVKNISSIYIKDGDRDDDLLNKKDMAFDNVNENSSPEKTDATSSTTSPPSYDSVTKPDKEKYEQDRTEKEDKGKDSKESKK
Chain of hNav1.7 (Q07699 19-218 partner): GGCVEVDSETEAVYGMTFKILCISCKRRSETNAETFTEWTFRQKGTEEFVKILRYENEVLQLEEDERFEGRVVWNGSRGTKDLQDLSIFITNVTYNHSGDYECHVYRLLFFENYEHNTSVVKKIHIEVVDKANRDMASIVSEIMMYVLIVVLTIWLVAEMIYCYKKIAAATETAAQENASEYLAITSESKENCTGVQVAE
Chain of hNav1.7 (O60939 30-215 partner): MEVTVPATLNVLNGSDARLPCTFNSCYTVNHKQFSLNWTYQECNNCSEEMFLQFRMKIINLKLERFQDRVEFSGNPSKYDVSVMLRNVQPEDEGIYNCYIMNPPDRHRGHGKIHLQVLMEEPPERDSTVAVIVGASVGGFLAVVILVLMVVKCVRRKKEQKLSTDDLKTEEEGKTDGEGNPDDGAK

Take `CC(C)C[C@H](CN)CC(=O)O` [pregabalin]: in test [1], the “effective therapeutic ratio based on self-evaluation of patients” value is given as “approximately 50%”.
On hNav1.7, `O=S(=O)(Nc1ncns1)c1cc(F)c(O[C@@H]2CCCC[C@@H]2c2ccccc2)cc1F` (relative stereo) [Example 3, 2,5-Difluoro-4-{[(1R*,2R*)-2-phenylcyclohexyl]oxy}-N-(1,2,4-thiadiazol-5-yl)benzenesulfonamide] displayed an IC50 of 270 nM.

These data come from patent US9845313B2, “Cycloalkane derivatives” (Daiichi Sankyo Company, Limited, priority 2012, dated 2017).
